Data from patent US11597724B2, “Herbicidally active 3-phenylisoxazoline-5-carboxamides of tetrahydro and dihydrofuran carboxylic acids and esters” (Bayer Aktiengesellschaft, priority 2017, dated 2023).

How the values were obtained:
Assay type in all cases: in vivo
[1] = tested on: Amaranthus retroflexus; test: Post-emergence herbicidal activity against AMARE; conditions: dosage 320 g/ha, rated about 3 weeks after treatment; for pest or weed control at 320 g/ha: Amaranthus retroflexus, 504 h
Procedure, shortened: (§1)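 Greenhouse pots of sandy loam; plants sprayed at one-leaf stage, 2 to 3 weeks after sowing, with WP or EC formulations in water plus 0.5% additive at 600 l/ha. Activity rated visually after about 3 weeks against untreated controls (100% = plants dead, 0% = like control).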

[2] = tested on: Polygonum convolvulus; test: Pre-emergence herbicidal activity against POLCO; conditions: dosage 80 g/ha; for pest or weed control at 80 g/ha: Fallopia convolvulus, 504 h
Excerpt: (§2) 1. Pre-Emergence Herbicidal Action and Crop Plant Compatibility Seeds of monocotyledonous and dicotyledonous weed plants and crop plants are placed in plastic or wood fiber pots and covered with soil. The compounds of the invention, formulated in the form of wettable powders (WP) or as emulsion concentrates (EC), are then applied onto the surface of the covering soil as aqueous suspension or emulsion with addition of 0.5% additive at a water application rate of 600 l/ha (converted). After the treatment, the pots are placed in a greenhouse and kept under good growth conditions for the trial plants. After about 3 weeks, the effect of the preparations is scored visually in comparison with untreated controls as percentages. For example, 100% activity=the plants have died, 0% activity=like control plants. POLCO: Polygonum convolvulus SETVI: Setaria viridis

[3] = tested on: Hordeum murinum; test: Pre-emergence herbicidal activity against HORMU; conditions: dosage 80 g/ha; for pest or weed control at 80 g/ha: Hordeum murinum, 504 h
Excerpt: as §2, with “ECHCG: Echinochloa crus-galli HORMU: Hordeum murinum” for “POLCO: Polygonum convolvulus SETVI: Setaria viridis”

[4] = tested on: Amaranthus retroflexus; test: Pre-emergence herbicidal activity against AMARE; conditions: dosage 80 g/ha; for pest or weed control at 80 g/ha: Amaranthus retroflexus, 504 h
Procedure, shortened: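 Seeds sown in pots, covered with soil; WP or EC formulations sprayed onto soil surface as aqueous suspension/emulsion with 0.5% additive at 600 l/ha water. Pots kept in greenhouse ~3 weeks, then effect scored visually versus untreated controls as % (100% = plants dead, 0% = like control).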

[5] = tested on: Avena fatua; test: Pre-emergence herbicidal activity against AVEFA; conditions: dosage 80 g/ha; for pest or weed control at 80 g/ha: Avena fatua, 504 h, read-out: Pre-emergence herbicidal activity against AVEVA in % (AVEFA)
Excerpt: as §2, with “AMARE: Amaranthus retroflexus AVEFA: Avena fatua” for “POLCO: Polygonum convolvulus SETVI: Setaria viridis”

[6] = tested on: Lolium rigidum; test: Pre-emergence herbicidal activity against LOLRI; conditions: dosage 80 g/ha; for pest or weed control at 80 g/ha: Lolium rigidum, 504 h
Excerpt: as §2, with “LOLRI: Lolium rigidum PHBPU: Pharbitis purpurea” for “POLCO: Polygonum convolvulus SETVI: Setaria viridis”

[7] = tested on: Pharbitis purpurea; test: Pre-emergence herbicidal activity against PHBPU; conditions: dosage 80 g/ha; for pest or weed control at 80 g/ha: Ipomoea purpurea, 504 h
Excerpt: as §2, with “LOLRI: Lolium rigidum PHBPU: Pharbitis purpurea” for “POLCO: Polygonum convolvulus SETVI: Setaria viridis”

[8] = tested on: Avena fatua; test: Post-emergence herbicidal activity against AVEFA; conditions: dosage 320 g/ha, rated about 3 weeks after treatment; for pest or weed control at 320 g/ha: Avena fatua, 504 h
Procedure, shortened: as §1

[9] = tested on: Echinochloa crus-galli; test: Post-emergence herbicidal activity against ECHCG; conditions: dosage 320 g/ha, rated about 3 weeks after treatment; for pest or weed control at 320 g/ha: Echinochloa crus-galli, 504 h
Procedure, shortened: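 Greenhouse pot plants sprayed post-emergence at one-leaf stage (2-3 weeks after sowing) with WP or EC formulations, 0.5% additive, 600 l/ha water. Visual rating about 3 weeks later versus untreated controls: 100% = plants dead, 0% = like control.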

SMILES	pest or weed control at 320 g/ha [1] [%]	pest or weed control at 80 g/ha [2] [%]	pest or weed control at 80 g/ha [3] [%]	pest or weed control at 80 g/ha [4] [%]	pest or weed control at 80 g/ha [5] [%]	pest or weed control at 80 g/ha [6] [%]	pest or weed control at 80 g/ha [7] [%]	pest or weed control at 320 g/ha [8] [%]	pest or weed control at 320 g/ha [9] [%]	Post-emergence herbicidal activity against AMARE in % [1] [%]	Pre-emergence herbicidal activity against POLCO in % [2] [%]	Pre-emergence herbicidal activity against HORMU in % [3] [%]	Pre-emergence herbicidal activity against AMARE in % [4] [%]	Pre-emergence herbicidal activity against AVEVA in % (AVEFA) [5] [%]	Pre-emergence herbicidal activity against LOLRI in % [6] [%]	Pre-emergence herbicidal activity against PHBPU in % [7] [%]	Post-emergence herbicidal activity against AVEFA in % [8] [%]	Post-emergence herbicidal activity against ECHCG in % [9] [%]
C=C[C@]1(C(=O)N[C@H]2CO[C@@H](C(=O)OC)C2)CC(c2cc(F)cc(F)c2)=NO1 (mixture of isomers) [I-10, methyl cis-4-[[(5S)-3-(3,5-difluorophenyl)-5-vinyl-4H-isoxazole-5-carbonyl]amino]tetrahydrofuran-2-carboxylate]	80	100	100	90	100	100	80	100	100									
C=C[C@]1(C(=O)N[C@H]2CO[C@@H](C(=O)OC(C)C)C2)CC(c2cc(F)cc(F)c2)=NO1 (mixture of isomers) [I-36, isopropyl cis-4-[[(5S)-3-(3,5-difluorophenyl)-5-vinyl-4H-isoxazole-5-carbonyl]amino]tetrahydrofuran-2-carboxylate]	90	100	90	100	100	100	90	90	90									
CC1(C(=O)NC2COC(C(=O)OCc3ccccc3)C2)CC(c2cc(F)cc(F)c2)=NO1 (mixture of isomers) [I-45]										80	100	100	100	100	100	90	100	100
CC(C)OC(=O)C1CC(NC(=O)C2(C)CC(c3cc(F)cc(F)c3)=NO2)CO1 (stereo not drawn) [I-44]										80	100	100	90	90	100	80	100	100
C=C[C@]1(C(=O)N[C@H]2CO[C@@H](C(=O)OC)C2)CC(c2cc(F)cc(F)c2)=NO1 (single isomer, unassigned) [I-11]	90						100	100	90		100	100	100	100	100			
C=C[C@]1(C(=O)N[C@H]2CO[C@@H](C(=O)OCc3ccccc3)C2)CC(c2cc(F)cc(F)c2)=NO1 (mixture of isomers) [I-37, benzyl cis-4-[[(5S)-3-(3,5-difluorophenyl)-5-vinyl-4H-isoxazole-5-carbonyl]amino]tetrahydrofuran-2-carboxylate]	80	100	100	100	100	100	90	100	90									
CC(C)(C)OC(=O)C1CC(NC(=O)C2(C)CC(c3cc(F)cc(F)c3)=NO2)CO1 (mixture of isomers) [I-42]										80	100	100	100	90	100	90	100	100
COC(=O)C1CC(NC(=O)C2(C)CC(c3cc(F)cc(F)c3)=NO2)CO1 (mixture of isomers) [I-48]										80	100	100	100	100	100	90	80	90
C=C[C@]1(C(=O)N[C@H]2CO[C@@H](C(=O)OCC)C2)CC(c2cc(F)cc(F)c2)=NO1 (mixture of isomers) [I-35, ethyl cis-4-[[(5S)-3-(3,5-difluorophenyl)-5-vinyl-4H-isoxazole-5-carbonyl]amino]tetrahydrofuran-2-carboxylate]	90	100	100	100	100	100	90	100	100									
